From patent US9978954B2, “Benzobis (thiadiazole) derivative, ink comprising same, and organic electronic device comprising same” (UBE INDUSTRIES, LTD., priority 2013, dated 2018)

Assay: Evaluation of solubility in organic solvents (visual observation of complete dissolution)
Format: physicochemical
Procedure: [Evaluation of Solubility]
The evaluation of the solubility of the synthesized compound was conducted by the following method.
About 2-3 mg of the compound was precisely weighed, and each solvent was added to the compound such that a predetermined concentration of the solute (0.5 wt %, 0.3 wt %, 0.2 wt %, 0.1 wt %, 0.05 wt %, or 0.03 wt %) was reached. The resultant mixture was stirred for 30 minutes at a predetermined temperature, and then it was evaluated by visual appearance observation whether or not the solute (synthesized compound) was completely dissolved in the solvent, which was the result of the evaluation of the solubility. As the solvent, chloroform (boiling point 61° C.), toluene (boiling point 111° C.), xylene (boiling point 144° C.), mesitylene (boiling point 165° C.), chlorobenzene (boiling point 130° C.), para-chlorotoluene (boiling point 162° C.), and ortho-dichlorobenzene (boiling point 181° C.) were used.

[1] = chloroform, 25° C. (room temperature)
[2] = 1-methylnaphthalene, 25° C. (room temperature)

solubility (solute concentration completely dissolved) (chlorobenzene, 80° C.) [wt %]	solubility (solute concentration completely dissolved) [1] [wt %]	solubility (solute concentration completely dissolved) (ortho-dichlorobenzene, 80° C.) [wt %]	solubility (solute concentration completely dissolved) (chloroform, 60° C.) [wt %]	solubility (solute concentration completely dissolved) (ortho-dichlorobenzene, 60° C.) [wt %]	Compound	further results
–	–	≥ 0.3	≥ 0.1	–	CCCCCCCCCCCCCCCCCCc1cc(-c2ccc(-c3c4c(c(-c5ccc(-c6ccc(C#N)c(CCCCCCCCCCCCCCCCCC)c6)s5)c5nsnc35)N=S=N4)s2)ccc1C#N [Compound (C20), 4,8-bis[5-(4-cyano-3-octadecylphenyl)thiophene-2-yl]benzo[1,2-c:4,5-c′]bis[1,2,5]thiadiazole]	solubility (solute concentration completely dissolved) (1-methylnaphthalene, 100° C.): ≥ 0.3 wt %; solubility (solute concentration completely dissolved) (chlorobenzene, 100° C.): ≥ 0.3 wt %
≥ 0.3	–	≥ 0.3	≥ 0.2	–	CCCC(C)CCc1cc(-c2ccc(-c3c4c(c(-c5ccc(-c6ccc(C#N)c(CCC(C)CCC)c6)s5)c5nsnc35)N=S=N4)s2)ccc1C#N (stereo not drawn) [Compound (C21), 4,8-bis[5-(4-cyano-3-(3-methylhexyl)phenyl)thiophene-2-yl]benzo[1,2-c:4,5-c′]bis[1,2,5]thiadiazole]	solubility (solute concentration completely dissolved) (1-methylnaphthalene, 80° C.): ≥ 0.3 wt %
–	≥ 0.1	–	–	–	CCCCCCc1cc(-c2ccc(-c3c4c(c(-c5ccc(-c6cc(CCCCCC)c(C#N)c(CCCCCC)c6)s5)c5nsnc35)N=S=N4)s2)cc(CCCCCC)c1C#N [Compound (C22), 4,8-bis[5-(4-cyano-3,5-dihexylphenyl)thiophene-2-yl]benzo[1,2-c:4,5-c′]bis[1,2,5]thiadiazole]	solubility (solute concentration completely dissolved) [2]: ≥ 0.1 wt %; solubility (solute concentration completely dissolved) (ortho-dichlorobenzene, 25° C.): ≥ 0.1 wt %; solubility (solute concentration completely dissolved) (toluene, 25° C.): ≥ 0.3 wt %
–	–	–	≥ 0.2	≥ 0.3	CCCCCCCCc1cc(-c2ccc(-c3c4c(c(-c5ccc(-c6ccc(C(F)(F)F)c(CCCCCCCC)c6)s5)c5nsnc35)N=S=N4)s2)ccc1C(F)(F)F [Compound (C24), 4,8-bis[5-(3-octyl-4-(trifluoromethyl)phenyl)thiophene-2-yl]benzo[1,2-c:4,5-c′]bis[1,2,5]thiadiazole]	solubility (solute concentration completely dissolved) (1-methylnaphthalene, 60° C.): ≥ 0.3 wt %; solubility (solute concentration completely dissolved) (mesitylene, 60° C.): ≥ 0.3 wt %; solubility (solute concentration completely dissolved) (toluene, 60° C.): ≥ 0.3 wt %
–	–	–	≥ 0.2	≥ 0.3	CCCCCCCCc1ccc(-c2ccc(-c3c4c(c(-c5ccc(-c6ccc(CCCCCCCC)c(C(F)(F)F)c6)s5)c5nsnc35)N=S=N4)s2)cc1C(F)(F)F [Compound (C25), 4,8-bis[5-(4-octyl-3-(trifluoromethyl)phenyl)thiophene-2-yl]benzo[1,2-c:4,5-c′]bis[1,2,5]thiadiazole]	solubility (solute concentration completely dissolved) (1-methylnaphthalene, 60° C.): ≥ 0.3 wt %; solubility (solute concentration completely dissolved) (mesitylene, 60° C.): ≥ 0.3 wt %; solubility (solute concentration completely dissolved) (toluene, 60° C.): ≥ 0.3 wt %
–	≥ 0.2	–	–	≥ 0.3	CCCCCCCCc1ccc(-c2ccc(-c3c4c(c(-c5ccc(-c6ccc(CCCCCCCC)c(C#N)c6)s5)c5nsnc35)N=S=N4)s2)cc1C#N [Compound (C26), 4,8-bis[5-(3-cyano-4-octylphenyl)thiophene-2-yl]benzo[1,2-c:4,5-c′]bis[1,2,5]thiadiazole]	solubility (solute concentration completely dissolved) (1-methylnaphthalene, 60° C.): ≥ 0.3 wt %; solubility (solute concentration completely dissolved) (mesitylene, 80° C.): ≥ 0.3 wt %; solubility (solute concentration completely dissolved) (toluene, 80° C.): ≥ 0.3 wt %
–	–	–	≥ 0.1	≥ 0.3	CCCCCCCCCCCCc1cc(-c2ccc(-c3c4c(c(-c5ccc(-c6ccc(C(F)(F)F)c(CCCCCCCCCCCC)c6)s5)c5nsnc35)N=S=N4)s2)ccc1C(F)(F)F [Compound (C27), 4,8-bis[5-(3-dodecyl-4-(trifluoromethyl)phenyl)thiophene-2-yl]benzo[1,2-c:4,5-c′]bis[1,2,5]thiadiazole]	solubility (solute concentration completely dissolved) (1-methylnaphthalene, 60° C.): ≥ 0.3 wt %; solubility (solute concentration completely dissolved) (mesitylene, 60° C.): ≥ 0.3 wt %; solubility (solute concentration completely dissolved) (toluene, 60° C.): ≥ 0.3 wt %
–	–	≥ 0.3	–	–	CCCCCCCCCCCCc1ccc(-c2ccc(-c3c4c(c(-c5ccc(-c6ccc(CCCCCCCCCCCC)c(C(F)(F)F)c6)s5)c5nsnc35)N=S=N4)s2)cc1C(F)(F)F [Compound (C28), 4,8-bis[5-(4-dodecyl-3-(trifluoromethyl)phenyl)thiophene-2-yl]benzo[1,2-c:4,5-c′]bis[1,2,5]thiadiazole]	solubility (solute concentration completely dissolved) (1-methylnaphthalene, 100° C.): ≥ 0.3 wt %; solubility (solute concentration completely dissolved) (chloroform, 80° C.): ≥ 0.1 wt %; solubility (solute concentration completely dissolved) (mesitylene, 100° C.): ≥ 0.3 wt %; solubility (solute concentration completely dissolved) (toluene, 100° C.): ≥ 0.3 wt %
–	–	≥ 0.3	≥ 0.2	–	CCCCC(CC)Cc1cc(-c2ccc(-c3c4c(c(-c5ccc(-c6ccc(C(F)(F)F)c(CC(CC)CCCC)c6)s5)c5nsnc35)N=S=N4)s2)ccc1C(F)(F)F (stereo not drawn) [Compound (C30)]	solubility (solute concentration completely dissolved) (1-methylnaphthalene, 60° C.): ≥ 0.3 wt %; solubility (solute concentration completely dissolved) (mesitylene, 80° C.): ≥ 0.3 wt %; solubility (solute concentration completely dissolved) (toluene, 80° C.): ≥ 0.3 wt %
–	≥ 0.2	–	–	–	CCCCC(CC)Cc1ccc(-c2ccc(-c3c4c(c(-c5ccc(-c6ccc(CC(CC)CCCC)c(C(F)(F)F)c6)s5)c5nsnc35)N=S=N4)s2)cc1C(F)(F)F (stereo not drawn) [Compound (C31)]	solubility (solute concentration completely dissolved) [2]: ≥ 0.3 wt %; solubility (solute concentration completely dissolved) (mesitylene, 25° C.): ≥ 0.3 wt %; solubility (solute concentration completely dissolved) (ortho-dichlorobenzene, 25° C.): ≥ 0.3 wt %; solubility (solute concentration completely dissolved) (toluene, 25° C.): ≥ 0.3 wt %

The remaining lines, values behind:

Compound	solubility (solute concentration completely dissolved) (chlorobenzene, 80° C.) [wt %]	solubility (solute concentration completely dissolved) [1] [wt %]	solubility (solute concentration completely dissolved) (ortho-dichlorobenzene, 80° C.) [wt %]	solubility (solute concentration completely dissolved) (chloroform, 60° C.) [wt %]	solubility (solute concentration completely dissolved) (ortho-dichlorobenzene, 60° C.) [wt %]	further results
CCCCCCCc1cc(-c2ccc(-c3c4c(c(-c5ccc(-c6ccc(C#N)c(CCCCCCC)c6)s5)c5nsnc35)N=S=N4)s2)ccc1C#N [Compound (C13), 4,8-bis[5-(4-cyano-3-heptylphenyl)thiophene-2-yl]benzo[1,2-c:4,5-c′]bis[1,2,5]thiadiazole]	≥ 0.3	≥ 0.2	≥ 0.3	–	–	solubility (solute concentration completely dissolved) (para-chlorotoluene, 80° C.): ≥ 0.3 wt %
CCCCCCCCc1cc(-c2ccc(-c3c4c(c(-c5ccc(-c6ccc(C#N)c(CCCCCCCC)c6)s5)c5nsnc35)N=S=N4)s2)ccc1C#N [Compound (C14), 4,8-bis[5-(4-cyano-3-octylphenyl)thiophene-2-yl]benzo[1,2-c:4,5-c′]bis[1,2,5]thiadiazole]	≥ 0.3	≥ 0.1	–	≥ 0.2	≥ 0.3	solubility (solute concentration completely dissolved) (para-chlorotoluene, 100° C.): ≥ 0.3 wt %
CCCCCCCCCc1cc(-c2ccc(-c3c4c(c(-c5ccc(-c6ccc(C#N)c(CCCCCCCCC)c6)s5)c5nsnc35)N=S=N4)s2)ccc1C#N [Compound (C15), 4,8-bis[5-(4-cyano-3-nonylphenyl)thiophene-2-yl]benzo[1,2-c:4,5-c′]bis[1,2,5]thiadiazole]	–	≥ 0.1	–	≥ 0.2	≥ 0.3	solubility (solute concentration completely dissolved) (chlorobenzene, 60° C.): ≥ 0.3 wt %; solubility (solute concentration completely dissolved) (para-chlorotoluene, 80° C.): ≥ 0.3 wt %
CCCCCCCCCCc1cc(-c2ccc(-c3c4c(c(-c5ccc(-c6ccc(C#N)c(CCCCCCCCCC)c6)s5)c5nsnc35)N=S=N4)s2)ccc1C#N [Compound (C16), 4,8-bis[5-(4-cyano-3-decylphenyl)thiophene-2-yl]benzo[1,2-c:4,5-c′]bis[1,2,5]thiadiazole]	≥ 0.3	–	≥ 0.3	≥ 0.2	–	solubility (solute concentration completely dissolved) (para-chlorotoluene, 80° C.): ≥ 0.3 wt %
CCCCCCCCCCCCc1cc(-c2ccc(-c3c4c(c(-c5ccc(-c6ccc(C#N)c(CCCCCCCCCCCC)c6)s5)c5nsnc35)N=S=N4)s2)ccc1C#N [Compound (C17), 4,8-bis[5-(4-cyano-3-dodecylphenyl)thiophene-2-yl]benzo[1,2-c:4,5-c′]bis[1,2,5]thiadiazole]	≥ 0.3	–	–	≥ 0.2	≥ 0.3	solubility (solute concentration completely dissolved) (para-chlorotoluene, 80° C.): ≥ 0.3 wt %; solubility (solute concentration completely dissolved) (xylene, 100° C.): ≥ 0.3 wt %
CCCCCCCCCCCCCCc1cc(-c2ccc(-c3c4c(c(-c5ccc(-c6ccc(C#N)c(CCCCCCCCCCCCCC)c6)s5)c5nsnc35)N=S=N4)s2)ccc1C#N [Compound (C18), 4,8-bis[5-(4-cyano-3-tetradecylphenyl)thiophene-2-yl]benzo[1,2-c:4,5-c′]bis[1,2,5]thiadiazole]	–	–	≥ 0.3	≥ 0.2	–	solubility (solute concentration completely dissolved) (1-methylnaphthalene, 80° C.): ≥ 0.3 wt %; solubility (solute concentration completely dissolved) (chlorobenzene, 100° C.): ≥ 0.3 wt %
CCCCCCCCCCCCCCCCc1cc(-c2ccc(-c3c4c(c(-c5ccc(-c6ccc(C#N)c(CCCCCCCCCCCCCCCC)c6)s5)c5nsnc35)N=S=N4)s2)ccc1C#N [Compound (C19), 4,8-bis[5-(4-cyano-3-hexadecylphenyl)thiophene-2-yl]benzo[1,2-c:4,5-c′]bis[1,2,5]thiadiazole]	≥ 0.3	–	≥ 0.3	≥ 0.2	–	solubility (solute concentration completely dissolved) [2]: ≥ 0.3 wt %
